Patent publication US4476298A, “Erythromycin A derivatives” (Taisho Pharmaceutical Co., Ltd., priority 1981, dated 1984)
Converted amounts (≈) assume the structure as drawn. Read-outs that look alike come from different tables or passages of the source.

Assays:
Assay in all cases: antibacterial activity (MIC), agar plate dilution method
Format in all cases: cell-based
[1] = tested on: Staphylococcus aureus FDA 209 P; conditions: for MIC: Staphylococcus aureus
Protocol: (§1) Erythromycin A was used as a control, and the compounds of formula I derived from Fractions A, B and C were tested for antibacterial activity against various bacteria by the agar plate dilution method.

Bacillus subtilis EM-R = conditions: for MIC: Bacillus subtilis, read-out: MIC value (minimal inhibitory concentration), Bacillus subtilis EM-R, strain resistant to erythromycin
Protocol: as §1

[2] = tested on: Streptococcus faecalis ATCC 8043; conditions: for MIC: Enterococcus faecalis
Protocol: as §1

[3] = tested on: Staphylococcus aureus smith; conditions: for MIC: Staphylococcus aureus, read-out: MIC value (minimal inhibitory concentration)
Protocol: as §1

[4] = tested on: Staphylococcus epidermidis IID 866; conditions: for MIC: Staphylococcus epidermidis
Protocol: as §1

[5] = tested on: Staphylococcus aureus TPR 23; conditions: for MIC value (minimal inhibitory concentration): Staphylococcus aureus TPR 23, strain resistant to erythromycin; for MIC: Staphylococcus aureus
Protocol: as §1

[6] = tested on: Staphylococcus aureus TPR 13; conditions: for MIC: Staphylococcus aureus
Protocol: as §1

Micrococcus luteus NIHJ = conditions: for MIC: read-out: MIC value (minimal inhibitory concentration)
Protocol: as §1

[7] = tested on: Staphylococcus aureus TPR 25; conditions: for MIC: Staphylococcus aureus
Protocol: as §1

[8] = FDA209, Staphylococcus aureus FDA 209 P, agar plate dilution, read-out: MIC value (minimal inhibitory concentration)
[9] = ATCC8043, Streptococcus faecalis ATCC 8043, agar plate dilution, read-out: MIC value (minimal inhibitory concentration)
[10] = Staphylococcus aureus smith, agar plate dilution
[11] = IID866, Staphylococcus epidermidis IID 866, agar plate dilution, read-out: MIC value (minimal inhibitory concentration)
[12] = TPR13, Staphylococcus aureus TPR 13, strain resistant to erythromycin, agar plate dilution, read-out: MIC value (minimal inhibitory concentration)
[13] = Micrococcus luteus NIHJ, agar plate dilution
[14] = TPR25, Staphylococcus aureus TPR 25, strain resistant to erythromycin, agar plate dilution, read-out: MIC value (minimal inhibitory concentration)

SMILES | MIC [1, 8] [µg/mL] | MIC (Bacillus subtilis EM-R) [µg/mL] | MIC [2, 9] [µg/mL] | MIC [3, 10] [µg/mL] | MIC [4, 11] [µg/mL] | MIC value (minimal inhibitory concentration) ([5]; agar plate dilution) [µg/mL] | MIC [6, 12] [µg/mL] | MIC (Micrococcus luteus NIHJ; [13]) [µg/mL] | MIC [7, 14] [µg/mL] | also measured
CC[C@H]1OC(=O)[C@H](C)[C@@H](O[C@H]2C[C@@](C)(OC)[C@@H](OC)[C@H](C)O2)[C@H](C)[C@@H](O[C@@H]2O[C@H](C)C[C@H](N(C)C)[C@H]2O)[C@@]2(C)C[C@@H](C)C(OC)(O2)[C@H](C)[C@H]2OC(=O)O[C@@]21C (single isomer, unassigned) [A] | ≤ 0.05 | 0.4 (≈ 0.508 µM) | ≤ 0.05 | 0.4 (≈ 0.508 µM) | 0.4 (≈ 0.508 µM) | 3.1 (≈ 3.93 µM) | 1.6 (≈ 2.03 µM) | < 0.05 | 1.6 (≈ 2.03 µM) | 
CC[C@H]1OC(=O)[C@H](C)[C@@H](O[C@H]2C[C@@](C)(OC)[C@@H](OC)[C@H](C)O2)[C@H](C)[C@@H](O[C@@H]2O[C@H](C)C[C@H](N(C)C)[C@H]2O)[C@@]2(C)C[C@@H](C)C(OC)(O2)[C@H](C)[C@H]2OC(=O)O[C@@]21C (single isomer, unassigned) [B] |  |  |  |  |  | 6.25 (≈ 7.93 µM) |  |  |  | MIC value (minimal inhibitory concentration) ([1]; Staphylococcus aureus FDA 209 P, agar plate dilution): 0.1 µg/mL (≈ 0.127 µM); MIC value (minimal inhibitory concentration) (Bacillus subtilis EM-R; Bacillus subtilis EM-R, strain resistant to erythromycin): 0.8 µg/mL (≈ 1.02 µM); MIC value (minimal inhibitory concentration) ([2]; Streptococcus faecalis ATCC 8043, agar plate dilution): 0.1 µg/mL (≈ 0.127 µM); MIC value (minimal inhibitory concentration) [3, 10]: 0.8 µg/mL (≈ 1.02 µM); MIC value (minimal inhibitory concentration) ([4]; Staphylococcus epidermidis IID 866, agar plate dilution): 0.8 µg/mL (≈ 1.02 µM); MIC value (minimal inhibitory concentration) ([6]; Staphylococcus aureus TPR 13, strain resistant to erythromycin, agar plate dilution): 3.1 µg/mL (≈ 3.93 µM); MIC value (minimal inhibitory concentration) (Micrococcus luteus NIHJ; [13]): < 0.05 µg/mL; MIC value (minimal inhibitory concentration) ([7]; Staphylococcus aureus TPR 25, strain resistant to erythromycin, agar plate dilution): 3.1 µg/mL (≈ 3.93 µM)
CC[C@H]1OC(=O)[C@H](C)[C@@H](O[C@H]2C[C@@](C)(OC)[C@@H](OC)[C@H](C)O2)[C@H](C)[C@@H](O[C@@H]2O[C@H](C)C[C@H](N(C)C)[C@H]2O)[C@@]2(C)C[C@@H](C)C(O)(O2)[C@H](C)[C@H]2OC(=O)O[C@@]21C (single isomer, unassigned) [C] | ≤ 0.05 | 0.4 (≈ 0.517 µM) | ≤ 0.05 | 0.2 (≈ 0.258 µM) | 0.4 (≈ 0.517 µM) |  | 0.8 (≈ 1.03 µM) | < 0.05 | 0.8 (≈ 1.03 µM) | MIC ([5]; TPR23, Staphylococcus aureus TPR 23, strain resistant to erythromycin, agar plate dilution, read-out: MIC value (minimal inhibitory concentration)): 3.1 µg/mL (≈ 4.01 µM)
CC[C@H]1OC(=O)[C@H](C)[C@@H](O[C@H]2C[C@@](C)(OC)[C@@H](O)[C@H](C)O2)[C@H](C)[C@@H](O[C@@H]2O[C@H](C)C[C@H](N(C)C)[C@H]2O)[C@](C)(O)C[C@@H](C)C(=O)[C@H](C)[C@@H](O)[C@]1(C)O [Erythromycin A] |  | > 100 |  |  |  |  |  |  |  | MIC ([1]; FDA209, read-out: MIC value (minimal inhibitory concentration)): ≤ 0.05 µg/mL; MIC ([2]; ATCC8043, read-out: MIC value (minimal inhibitory concentration)): ≤ 0.05 µg/mL; MIC [3]: 0.2 µg/mL (≈ 0.273 µM); MIC ([4]; IID866, read-out: MIC value (minimal inhibitory concentration)): 0.4 µg/mL (≈ 0.545 µM); MIC ([5]; TPR23, read-out: MIC value (minimal inhibitory concentration)): 100 µg/mL (≈ 136 µM); MIC ([6]; TPR13, read-out: MIC value (minimal inhibitory concentration)): 25 µg/mL (≈ 34.1 µM); MIC (Micrococcus luteus NIHJ; Micrococcus luteus): < 0.05 µg/mL; MIC ([7]; TPR25, read-out: MIC value (minimal inhibitory concentration)): 50 µg/mL (≈ 68.1 µM)
